Experimental data taken from patent publication US20220017483A1, “AMINOPYRIDINE COMPOUND, PREPARATION METHOD THEREFOR AND USE THEREOF” (SICHUAN-KELUN-BIOTECH BIOPHARMACEUTICAL CO., LTD, priority 2018, published 2022).
Where two headings read alike, the source gives them in different places.

What was measured:
[1] = biological target: T1, A2a receptor cell membrane (human origin) (Homo sapiens, UniProt P29274); experiment: Competitive inhibition constant (Ki) for adenosine A2a receptor, [3H]-CGS-21680 radioligand binding; settings: for Ki(A1)/Ki(A2a): selectivity ratio A1 over A2a
T1 construct: purchased PerkinElmer RBHA2AM400UA
Experimental: A2a receptor cell membrane (human origin): PerkinElmer, RBHA2AM400UA
A2a test buffer: 50 mM Tris-HCl, 10 mM MgCl2, 1 mM EDTA, pH7.4
(§1) The A1 receptor cell membrane was diluted to 0.025 μg/μl with the A1 test buffer and the A2a receptor cell membrane was diluted to 0.05 μg/μl with the A2a test buffer to obtain an A1 receptor cell membrane dilution and an A2a receptor cell membrane dilution.
(§2) The tested compound and CGS15943 were gradiently diluted with DMSO. 1 μl test compound, high-value control (0.5% DMSO), low-value control (1000 nM CGS15943) were added to a 96-well plate, wherein each well was added with 100 μl A1 receptor cell membrane dilution (containing 2.5 μg cell membrane) to obtain an A1 detection plate. Through the same steps, 100 μl A2a receptor cell membrane dilution (containing 5.0 μg cell membrane) was added to each well of a 96-well plate to obtain an A2a detection plate.
The A1 and A2a detection plates were sealed with a tap, and incubated at room temperature for 1 h and 2 h, respectively.
(§3) Unifilter-96 GF/C filter plate was prepared. The Unifilter-96 GF/C filter plate was added with 50 μl 0.3% PEI in each well, and incubated at room temperature for no less than 0.5 h.
(§4) After the incubation, the reaction solutions in the A1 detection plate and the A2a detection plate were transferred to two Unifilter-96 GF/C filter plates. The filter plates were washed with the corresponding pre-cooled washing buffers, then oven dried. After sealing the bottom of the filter plates, 50 μl of Microscint 20 cocktail scintillation fluid was added. After sealing the top of the filter plates, the plates were read in the counter MicroBeta2 Reader.
(§5) Data analysis: The inhibition rate was calculated according to the following formula:
(§6) Inhibition rate %=100−(the signal value of the tested wells−the signal average of the low-value control)/(the signal average of the high-value control−the signal average of the low-value control)*100.
(§7) IC50 was fitted by EXCEL XLfit. The competitive inhibition constant (Ki) was calculated according to the formula: Ki=IC50/(1+the concentration of the isotope-labelled ligands/Kd); Kd is the dissociation constant of the isotope-labeled ligands.

[2] = biological target: T2, A1 receptor cell membrane (human origin) (Homo sapiens, UniProt P30542); experiment: Competitive inhibition constant (Ki) for adenosine A1 receptor, [3H]-DPCPX radioligand binding; settings: [3H]-DPCPX 1.0 nM
T2 construct: purchased PerkinElmer ES-010-M400UA
T2 sequence (P30542 1-326): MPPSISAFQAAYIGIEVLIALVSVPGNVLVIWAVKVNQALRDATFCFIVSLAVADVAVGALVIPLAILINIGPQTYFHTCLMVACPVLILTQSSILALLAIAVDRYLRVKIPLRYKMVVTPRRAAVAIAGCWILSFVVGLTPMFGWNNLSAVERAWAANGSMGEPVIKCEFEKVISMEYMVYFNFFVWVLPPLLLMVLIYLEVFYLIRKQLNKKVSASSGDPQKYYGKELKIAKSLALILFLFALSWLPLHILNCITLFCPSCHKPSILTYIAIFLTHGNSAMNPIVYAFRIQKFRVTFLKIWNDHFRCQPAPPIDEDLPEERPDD
Experimental: Experimental Example 1: Determination of the Competitive Inhibition Constant (Ki) for Adenosine A1 and A2a Receptors
[^3H]-DPCPX: PerkinElmer, NET974250UC
A1 receptor cell membrane (human origin): PerkinElmer, ES-010-M400UA
A1 test buffer: 25 mM HEPES, 5 mM MgCl2, 1 mM CaCl2, 100 mM NaCl, pH7.4
A1 washing buffer: 25 mM HEPES, 5 mM MgCl2, 1 mM CaCl2, 100 mM NaCl, pH7.4
as §1, §2
100 μl of radioisotope-labelled ligand [^3H]-DPCPX (diluted in A1 test buffer, working concentration 1.0 nM) was added to the A1 detection plate, and 100 μl of radioisotope-labelled ligand [^3H]-CGS-21680 (diluted in A2a test buffer, working concentration 6.0 nM) was added to the A2a detection plate. The A1 and A2a detection plates were sealed with a tap, and incubated at room temperature for 1 h and 2 h, respectively.
as §3, §4, §5, §6, §7

[3] = human A2a receptor cell membrane, [3H]-CGS-21680 6.0 nM, read-out: Ki(A2a)

T1 sequence (P29274 whole entry): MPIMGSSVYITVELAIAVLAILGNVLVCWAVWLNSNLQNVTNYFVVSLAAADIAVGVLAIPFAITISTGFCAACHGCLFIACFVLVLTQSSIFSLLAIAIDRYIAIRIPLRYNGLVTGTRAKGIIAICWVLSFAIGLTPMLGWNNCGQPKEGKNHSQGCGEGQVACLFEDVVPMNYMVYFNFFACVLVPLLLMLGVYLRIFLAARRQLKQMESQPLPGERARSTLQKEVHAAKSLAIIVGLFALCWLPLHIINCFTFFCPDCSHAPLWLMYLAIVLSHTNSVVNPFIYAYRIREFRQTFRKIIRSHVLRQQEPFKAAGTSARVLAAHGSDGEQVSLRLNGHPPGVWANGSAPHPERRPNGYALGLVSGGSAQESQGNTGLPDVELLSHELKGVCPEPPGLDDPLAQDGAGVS

| SMILES | Ki(A1)/Ki(A2a) [1] | Ki [1, 3] [nM] | Ki [2] [nM] | Ki [1] [nM] |
| --- | --- | --- | --- | --- |
| Cc1ncnc2ccc(-c3cc(Br)c(N)nc3-c3ccc(F)cc3)cc12 [Compound 2, 3-bromo-6-(4-fluorophenyl)-5-(4-methylquinazolin-6-yl)pyridin-2-amine] | 112.1 | 2.6 | 291 |  |
| Cc1ncnc2ccc(-c3cc(-c4cnn(CCN(C)C)c4)c(N)nc3-c3ccc(F)cc3)cc12 [Compound 16, 3-(1-(2-(dimethylamino)ethyl)-1H-pyrazol-4-yl)-6-(4-fluorophenyl)-5-(4-methylquinazolin-6-yl)pyridin-2-amine] | 82.6 | 16.7 | 1380 |  |
| COCCn1cc(-c2cc(-c3ccc4ncnc(C)c4c3)c(-c3ccc(F)cc3)nc2N)cn1 [Compound 17, 6-(4-fluorophenyl)-3-(1-(2-methoxyethyl)-1H-pyrazol-4-yl)-5-(4-methylquinazolin-6-yl)pyridin-2-amine] | 137.3 |  | 316 | 2.3 |
| Cc1ccnc2ccc(-c3cc(C(N)=O)c(N)nc3-c3ccc(F)cc3)cc12 [Compound 22, 2-amino-6-(4-fluorophenyl)-5-(4-methylquinolin-6-yl)nicotinamide] | 66.3 | 1.6 | 106 |  |
| Cc1ncnc2ccc(-c3cc(-n4cc(C(N)=O)cn4)c(N)nc3-c3ccc(F)cc3)cc12 [Compound 24, 1-(2-amino-6-(4-fluorophenyl)-5-(4-methylquinazolin-6-yl)pyridin-3-yl)-1H-pyrazol-4-carboxamide] | 150.0 | 23.2 | 3480 |  |
| Cc1cc(-c2cc(-n3cc(C(N)=O)cn3)c(N)nc2-c2ccc(F)cc2)cc(Cl)n1 [Compound 26, 1-(6-amino-2′-chloro-2-(4-fluorophenyl)-6′-methyl-[3,4′-bipyridine]-5-yl)-1H-pyrazol-4-carboxamide] |  | 104 | 4850 |  |
| Cc1cc(-c2cc(-c3cnn(CCC(N)=O)c3)c(N)nc2-c2ccc(F)cc2)cc(Cl)n1 [Compound 30, 3-(4-(6-amino-2′-chloro-2-(4-fluorophenyl)-6′-methyl-[3,4′-bipyridine]-5-yl)-1H-pyrazol-1-yl)propionamide] | 38.0 |  | 1930 | 50.8 |
| Cc1ccnc2ccc(-c3cc(-c4cnn(CCC(N)=O)c4)c(N)nc3-c3ccc(F)cc3)cc12 [Compound 31, 3-(4-(2-amino-6-(4-fluorophenyl)-5-(4-methylquinolin-6-yl)pyridin-3-yl)-1H-pyrazol-1-yl)propionamide] | 91.0 |  | 146 | 1.6 |
| NC(=O)c1cc(-c2ccncc2)c(-c2cccc(F)c2)nc1N [Control compound 1, reference compound] | 0.2 | 138 | 25.7 |  |

Now from value to molecule, other results behind:

| Ki(A1)/Ki(A2a) [1] | Ki [1, 3] [nM] | Ki [2] [nM] | SMILES | Ki [1] [nM] |
| --- | --- | --- | --- | --- |
| 339.0 |  |  | Cc1ncnc2ccc(-c3ccc(N)nc3-c3ccc(F)cc3)cc12 [Compound 1, 6-(4-fluorophenyl)-5-(4-methylquinazolin-6-yl)pyridin-2-amine] |  |
| 222.8 | 4.9 | 1090 | COC(=O)c1cc(-c2ccc3ncnc(C)c3c2)c(-c2ccc(F)cc2)nc1N [Compound 3, methyl 2-amino-6-(4-fluorophenyl)-5-(4-methylquinazolin-6-yl) nicotinate] |  |
| 293.5 | 25.6 | 7510 | Cc1ncnc2ccc(-c3cc(C(=O)O)c(N)nc3-c3ccc(F)cc3)cc12 [Compound 4, 2-amino-6-(4-fluorophenyl)-5-(4-methylquinazolin-6-yl)nicotinic acid] |  |
| 325.3 | 2.1 | 683 | Cc1ncnc2ccc(-c3cc(C#N)c(N)nc3-c3ccc(F)cc3)cc12 [Compound 5, 2-amino-6-(4-fluorophenyl)-5-(4-methylquinazolin-6-yl) nicotinonitrile] |  |
| 245.0 | 20.2 | 4950 | CNC(=O)c1cc(-c2ccc3ncnc(C)c3c2)c(-c2ccc(F)cc2)nc1N [Compound 7, 2-amino-6-(4-fluorophenyl)-N-methyl-5-(4-methylquinazolin-6-yl) nicotinamide] |  |
| 148.5 | 4.8 | 713 | Cc1ncnc2ccc(-c3cc(-c4cnn(C)c4)c(N)nc3-c3ccc(F)cc3)cc12 [Compound 8, 6-(4-fluorophenyl)-3-(1-methyl-1H-pyrazol-4-yl)-5-(4-methylquinazolin-6-yl)pyridin-2-amine] |  |
| 85.3 | 12.6 | 1070 | Cc1ncnc2ccc(-c3cc(-c4nnn[nH]4)c(N)nc3-c3ccc(F)cc3)cc12 [Compound 9, 6-(4-fluorophenyl)-5-(4-methylquinazolin-6-yl)-3-(1H-tetrazol-5-yl) pyridin-2-amine] |  |
| 219.0 | 2 | 438 | Cc1ncnc2ccc(-c3c(Cl)cc(N)nc3-c3ccc(F)cc3)cc12 [Compound 10, 4-chloro-6-(4-fluorophenyl)-5-(4-methylquinazolin-6-yl)pyridin-2-amine] |  |
| 146.5 | 1.4 | 205 | Cc1ncnc2ccc(-c3c(C#N)cc(N)nc3-c3ccc(F)cc3)cc12 [Compound 11, 6-amino-2-(4-fluorophenyl)-3-(4-methylquinazolin-6-yl) isonicotinonitrile] |  |
| 54.9 | 6.8 | 374 | Cc1ncnc2ccc(-c3cc(C(N)=O)c(N)nc3-c3cc(F)cc(F)c3)cc12 [Compound 12, 2-amino-6-(3,5-difluorophenyl)-5-(4-methylquinazolin-6-yl) nicotinamide] |  |
| 359.0 | 12.2 | 4380 | Cc1ncnc2ccc(-c3cc(C(N)=O)c(N)nc3-c3ccccc3F)cc12 [Compound 13, 2-amino-6-(2-fluorophenyl)-5-(4-methylquinazolin-6-yl) nicotinamide] |  |
| 57.6 | 2.3 | 132 | Cc1ncnc2ccc(-c3cc(-c4nnc(C(N)=O)o4)c(N)nc3-c3ccc(F)cc3)cc12 [Compound 25, 5-(2-amino-6-(4-fluorophenyl)-5-(4-methylquinazolin-6-yl)pyridin-3-yl)-1,3,4-oxadiazol-2-carboxamide] |  |
| 25.0 | 1.2 | 30 | Cc1ccnc2ccc(-c3cc(-c4nnc(C(N)=O)o4)c(N)nc3-c3ccc(F)cc3)cc12 [Compound 29, 5-(2-amino-6-(4-fluorophenyl)-5-(4-methylquinolin-6-yl)pyridin-3-yl)-1,3,4-oxadiazol-2-carboxamide] |  |
